The text below walks through data of patent US11744815B1, “Pharmaceutical composition of dimethylguanidino valeric acid and plant flavonoids for treating chronic inflammatory diseases and cancer” (priority 2022, dated 2023).

Series [1] relates to activated T cells. Nature of the series: T cell survival by flow cytometry after 3 days. The format is cell-based. As to conditions: stimulated with indicated amount of DMGV. The method, then:
(§1) In example one, pharmaceutical composition was screened and discovered natural small molecules that inhibit T cell survival and proliferation to use as therapeutics for chronic inflammatory diseases and cancers as taught in FIG. 1, T cells were stimulated with or without the indicated amount of DMGV and survival was measured by flow cytometry after 3 days. […] Solid tumor cancer cell lines were incubated with different doses of DMGV or 5-FU (5-fluorouracil), and cells survival was measured by CCK-8 after 2 days.

In series [2] the test system is Jurkat (Human T lymphocytic leukemia cell lines). Nature of the series: Survival of hematological cancer cell line Jurkat. It is filed as cell-based.
The subject of series [3] is THP-1 (Acute monocytic leukemia cell lines). Briefly: Survival of hematological cancer cell line THP-1. The format is cell-based.
Series [4] deals with HL-60 (Acute myeloid leukemia M3 cell lines). Nature of the series: Survival of hematological cancer cell line HL-60. It is filed as cell-based.
The test system of series [5] is K-562 (Human chronic myeloid leukemia cell lines). Briefly: Survival of hematological cancer cell line K-562. It is filed as cell-based.
The subject of series [6] is HCT-8 (Human colorectal cancer cell lines). It is filed as cell-based. The method, then:
as §1

The subject of series [7] is HCA-7 (colorectal cancer cell lines). Briefly: Solid tumor cell survival by CCK-8 after 2 days, HCA-7. The format is cell-based. As for the experimental part:
as §1

In series [8] the test system is PC-3 (Human prostate cancer cell lines). Nature of the series: Solid tumor cell survival by CCK-8 after 2 days, PC-3. The format is cell-based. The method, then:
as §1

For a further series, the system named is Jurkat cells. Briefly: T cell leukemia model, Jurkat cells injected into tail vein of mice. The format is in vivo, NSG/SCID mice. Conditions: 700 μg/mouse i.p. As for the experimental part: The next experiment tested whether DMGV can eliminate cancer cells in vivo. […] After 2 weeks of the injection, the level of Jurkat cells in the peripheral blood reached around 60% of the total leukocytes. The model mice were injected with either PBS (Control) or DMGV (700 μg/mouse intraperitoneal injection, i.p.) for 2 weeks as shown in FIG. 3B.

Series [9] deals with activated T cells. Nature of the series: Energy metabolism by Seahorse assay. It is filed as cell-based, mouse. The source says: The invention tested if DMGV relied on glycolysis to suppress cell survival.
For the next series, the system named is mouse T cells. Nature of the series: Mouse T cell survival in RPMI with or without glucose, 4 days. It is filed as cell-based. As for the experimental part:
In order to test the effects of glycolysis on the DMGV function to inhibit survival, mouse T cells were activated with or without DMGV in RPMI with or without glucose for 4 days and the survival rates were measured by flow cytometry. […] Oxidative phosphorylation uses pyruvate, an end product of glycolysis, and thus a diminished glycolysis can decrease oxidative phosphorylation.

The test system of the next series is AGXT2^−/− T cells. Nature of the series: ROS induction in AGXT2-KO T cells. The format is cell-based, mice. Conditions: ADMA 10 μM, SDMA 10 μM, DMGV (504). The method, then:
DMGV is converted from asymmetric dimethylarginine (ADMA) or symmetric dimethylarginine (SDMA) by alanine-glyoxylate aminotransferase 2 (AGXT2) in the mitochondria whereas ADMA or SDMA is metabolized to L-citrulline in the cytosol as shown in FIG. 6A. In order to investigate the role of DMGV in T cells, we generated AGXT2-KO (AGXT2^−/−) mice using Crispr/Cas9 technology according to FIG. 6B. Neither ADMA (10 μM) or SDMA (10 μM) induce ROS in AGXT2^−/− T cells but DMGV (504) still does, an evidence that SDMA or ADMA induces ROS only when they are converted to DMGV (FIG. 6C).

For series [10], the system named is AGXT2^+/+ and AGXT2^−/− T cells. Nature of the series: Survival of AGXT2^+/+ and AGXT2^−/− T cells, 4 days, flow cytometry. As to conditions: DMGV: 504, 4 days. The format is cell-based, mice. As for the experimental part: To investigate the role of AGXT2 and DMGV in T cell survival, AGXT2^+/+ and AGXT2^−/− T cells were stimulated with the indicated compounds (ADMA: 10 μM, SDMA: 10 μM, DMGV: 504, MitoQ: 100 nM) for 4 days and the survival rate was measured by flow cytometry.

The target in another series is T1, MCU (Homo sapiens, UniProt Q8NE86).
T1 construct: endogenous in cells; host or cells: Jurkat T cells
T1 sequence (Q8NE86 51-351): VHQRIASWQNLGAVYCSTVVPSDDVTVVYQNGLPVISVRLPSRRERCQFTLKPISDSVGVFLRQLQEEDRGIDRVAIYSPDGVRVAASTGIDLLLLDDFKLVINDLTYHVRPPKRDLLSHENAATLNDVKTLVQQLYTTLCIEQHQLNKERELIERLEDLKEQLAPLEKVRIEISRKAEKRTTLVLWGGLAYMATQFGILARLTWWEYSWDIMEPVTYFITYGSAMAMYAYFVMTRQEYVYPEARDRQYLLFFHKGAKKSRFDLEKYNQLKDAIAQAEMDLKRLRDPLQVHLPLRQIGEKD
T1 sequence (Q9H4I9 48-107 partner limits assumed): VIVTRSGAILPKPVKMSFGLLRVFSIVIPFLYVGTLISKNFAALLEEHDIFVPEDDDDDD
Nature of the series: Mitochondrial calcium influx in Jurkat cells expressing Mito-GEM-GECO. The format is cell-based. As to conditions: Jurkat cells, Mito-GEM-GECO. As for the experimental part:
As a sudden influx of calcium to the mitochondria can cause ROS induction, we tested whether DMGV regulates calcium flux to induce ROS. Calcium flux was measured by flow cytometry using the calcium indicator Fluo-8. While stimulation of T cell receptor (TCR) by a stimulatory antibody triggered calcium release from ER (efflux), which in turn induced calcium influx from the outside to cytosol (influx). […] Because of the close proximity between ER and mitochondria, calcium efflux from ER leads to calcium import to the mitochondria, which can be mediated by MCU.
As certain flavonoids are known to active MCU, we tested whether DMGV and the flavonoids activate MCU in the same manner. Jurkat T cells were treated with the flavonoids [kaempferol (5 μM), quercetin (25 μM), or daidzein (5 μM)]. […] The molecular docking simulator SwissDock predicted that the flavonoids and DMGV bind to MCU in a same pocket.

Series [11] concerns MCU mutants deleted of Ile127, V135, or Ile127 and V135. Briefly: MCU deletion mutants transfected to MCU KO cells. It is filed as cell-based. The source says: To test whether Ile127 and V135 are important for these compounds to activate MCU, we generated 3 different MCU mutants deleted of Ile127, V135, or Ile127 and V135. These MCU mutants were transfected to MCU KO cells and stimulated with kaempferol, daidzein, quercetin, or DMGV.

The subject of another series is autoimmune arthritis. Briefly: Chronic autoimmune arthritis in SKG mice accelerated by laminarian. The format is in vivo. Conditions: i.p. 750 μg/mouse, twice a week, up to 50 days, start at score 8. An excerpt:
In the second model, SKG mice harbor a point mutation in ZAP-70^W163C and Develop Chronic autoimmune arthritis similar to human RA due to aberrant T cell activation. The disease can be accelerated by injection of […].

“Also recorded” adds a separate entry of the source.

As to dimethylguanidino valeric acid [DMGV], the “survival and proliferation of activated T cells” value with activated T cells [1] is “inhibit the survival and proliferation of activated T cells”. The “survival of Jurkat cells” value in [2] is “suppresses survival”. The “survival of THP-1 cells” value in series [3] is on record as “suppresses survival”. The “survival of HL-60 cells” value in series [4] is listed as “suppresses survival”. In addition, in series [5], the “survival of K-562 cells” value is “suppresses survival”. In addition, in [6], the “inhibition of HCT-8 proliferation compared with 5-FU” value is “inhibited proliferation of HCT-8 better than a known chemotherapeutic drug, 5-FU”. Further, the “proliferation of HCT-8” value in series [6] (CCK-8 after 2 days) was “suppresses proliferation”. Moreover, the “suppression of HCT-8 proliferation, 3D versus 2D culture” value in series [6] (Matrigel (3D) vs 2-dimensional culture) was “much more effective in suppressing proliferation of HCT-8 cultured in Matrigel™ (3D) than 2D”. For the same substance, the “proliferation of HCA-7” value in series [7] is reported as “suppresses proliferation”. The “proliferation of PC-3” value in series [8] is “suppresses proliferation”. Further, in the series with Jurkat cells (after 2 weeks of treatment), the “Jurkat cells in the peripheral blood” value is given as “completely eliminated Jurkat cells”. Also, in the series on Jurkat cells (after 4 weeks of treatment), the cancer-induced death entry was “prevented the cancer-induced death”. Also, in the series with activated T cells [9], the glycolysis entry is on record as “significantly inhibited” and the oxidative phosphorylation entry is reported as “significantly inhibited”. Moreover, the “T cell survival in glucose-free culture” value in the series on mouse T cells is given as “no longer affected T cell survival”. Besides, the “ROS induction in AGXT2^−/− T cells” value in the series on AGXT2^−/− T cells is listed as “still does”. For the same substance, in [10], the “survival of AGXT2^+/+ T cells” value was “inhibited survival of AGXT2^+/+ T cells” and the “survival of AGXT2^−/− T cells” value was “rescued AGXT2^−/− T cells”. Also, the “calcium influx to the mitochondria” value on MCU is “induces calcium influx to the mitochondria”. The “dependence of MCU activation on Ile127” value in [11] (MCU mutant deleted of Ile127 in MCU KO cells) is “completely; also recorded: dependent mostly on Ile127”. In addition, in series [11] (MCU mutant deleted of V135 in MCU KO cells), the “dependence of MCU activation on V135” value is listed as “independent on Va1135”. Also, the arthritis score result in the series with autoimmune arthritis is recorded as “significantly decreased the arthritis score”.
